Experiments:
MDA-MB 231 cells [1] = experiment: Cell viability assay (WST-1); type: cell-based, human; conditions: 10 mM, within 2 h
Experimental: FIG. 6. Effects of tempol and tempo on cell viability. […] Control cells were grown overnight in serum-free medium, followed by treatment with 1% ethanol for various times. Fresh serum-free medium (100 ul) was added to each well in all plates, including controls followed by the addition of WST-1 (10 ul). Plates were incubated for 2 h at 37° C. and the color solution developed by WST-1 was quantified using a MR 700 microplate reader at OD=450/600. Values shown are mean±s.d. of 6 determinations per treatment condition in a representative experiment, and the experiment was repeated three times.
Cell Viability Assay—Effects of nitroxide compounds on cell viability and proliferation were determined using a cell viability detection kit (4-[3-(4-Iodophenyl)-2-(4-nitrophenyl)-2H-5-tetrazolio]-1,3-benzene disulfonate, WST-1) according to the manufacturer's instructions (Boehringer Mannheim, Indianapolis, Ind.). Briefly, MDA-MB 231 cells were seeded onto 96 well plates at density of 10,000 cells per well and maintained overnight in 10% FBS containing medium. The cells were then washed twice with phosphate buffered saline and re-fed in serum-free medium. The following day, cells were treated for various times with tempol (10 mM) or tempo (10 mM), using six wells per treatment condition. […] Plates were incubated for 2 h at 37° C. and analyzed at OD=450/600 using a MR 700 microplate reader.

MDA-MB 231 cells [2] = experiment: Protein tyrosine phosphorylation (anti-PY immunoprecipitation/immunoblot); type: cell-based, human; conditions: 10 mM, 15 min to 2 h
Experimental: FIG. 2. Effects of tempol and tempo on protein tyrosine phosphorylation. Subconfluent cultures were grown in serum-free medium overnight, followed by treatment with tempol (10 mM) or tempo (10 mM) for indicated times and lysis. Normalized protein contents (1 mg) were immunoprecipitated with agarose-conjugated anti-PY MAb, and then immunoblotted with anti-PY MAb. Data shown is representative of two independent experiments. UT, untreated cells grown overnight in serum-free medium.
Cell Culture, Treatments with Tempol and Tempo, and Preparation of Cell Lysates—MDA-MB 231 human breast cancer cells were grown to near confluence in 75 cm^2 tissue culture flasks in Improved Minimum Essential Medium (IMEM) (Cellgro) containing 10% fetal bovine serum (FBS) and 2 mM L-glutamine in a humidified atmosphere of 5% CO2: 95% air at 37° C. Cells were trypsinized and plated into a 150 mm tissue culture dish (two dishes per flask) overnight in medium containing 10% FBS followed by two washes with phosphate buffer saline (PBS). […]
Immunoprecipitation and Immunoblotting—Whole cell lysate (1 mg) was immunoprecipitated with the appropriate agarose-conjugated antibody (1 ug/ml of lysis buffer) overnight at 4° C. with constant agitation. […] The bands of interest were quantified by ImageQuant software version 3.3 (Molecular Dynamics Personal Densitometer, Sunnyvale, Calif.). […]

SMILES | decrease in the number of viable cells (MDA-MB 231 cells [1]) | protein tyrosine phosphorylation (MDA-MB 231 cells [2])
CC1(C)CCCC(C)(C)N1[O] [tempo, 2,2,6,6-tetramethylpiperidine-N-oxyl] | > 50% | conspicuous increase
CC1(C)CC(O)CC(C)(C)N1[O] [tempol, 4-hydroxy-tempo, reference compound] | comparable to control cells | minimal protein tyrosine phosphorylation
